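Here, GI50 denotes the concentration required for 50% inhibition of growth. TGI marks complete inhibition of growth.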
Columns and labels:
Experiment in all cases: NCI anticancer screen, dose series, 384-well format
[1] = system: 786-0 renal
[2] = system: A498 renal
[3] = system: A549 NSCLC
[4] = system: ACHN renal
[5] = system: BT-549 breast
[6] = system: CAKI-1 renal
[7] = system: CCRF-CEM leukemia
[8] = system: COLO 205 colon
[9] = system: DU-145 prostate
[10] = system: EKVX NSCLC
[11] = system: HCC-2998 colon
[12] = system: HCT-116 colon
[13] = system: HCT-15 colon
[14] = system: HL-60(TB) leukemia
[15] = system: HOP-62 NSCLC
[16] = system: HOP-92 NSCLC
[17] = system: HS 578T breast
[18] = system: HT29 colon
[19] = system: IGROV1 ovarian
[20] = system: K-562 leukemia
[21] = system: KM12 colon
[22] = system: M14 melanoma
[23] = system: MALME-3M melanoma
[24] = system: MCF7 breast
[25] = system: MDA-MB-231 breast
[26] = system: MDA-MB-435 melanoma
[27] = system: MDA-MB-468 breast
[28] = system: MOLT-4 leukemia
[29] = system: NCI-H226 lung
[30] = system: NCI-H23 lung
[31] = system: NCI-H322M lung
[32] = system: NCI-H460 NSCLC
[33] = system: NCI-H522 lung
[34] = system: NCI/ADR-RES ovarian
[35] = system: OVCAR-3 ovarian
[36] = system: OVCAR-4 ovarian
[37] = system: OVCAR-5 ovarian
[38] = system: OVCAR-8 ovarian
[39] = system: PC-3 prostate
[40] = system: RPMI-8226 leukemia
[41] = system: RXF 393 renal
[42] = system: SF-268 CNS
[43] = system: SF-295 CNS
[44] = system: SF-539 CNS
[45] = system: SK-MEL-28 melanoma
[46] = system: SK-MEL-5 melanoma
[47] = system: SK-OV-3 ovarian
[48] = system: SN12C renal
[49] = system: SNB-19 CNS
[50] = system: SNB-75 CNS
[51] = system: SR leukemia
[52] = system: SW-620 colon
[53] = system: T-47D breast
[54] = system: TK-10 renal
[55] = system: U251 glioblastoma
[56] = system: UACC-257 melanoma
[57] = system: UO-31 renal

CS(=O)c1ccc(-c2nc(-c3ccc(F)cc3)c(-c3ccncc3)[nH]2)cc1 (centres undefined)
GI50 [1]: 17.8 µM
TGI [1]: 36.5 µM
GI50 [2]: 16.7 µM
TGI [2]: 55.2 µM
GI50 [3]: 38.9 µM
TGI [3]: > 100 µM
GI50 [4]: 19 µM
TGI [4]: 65.1 µM
GI50 [5]: 41.7 µM
TGI [5]: > 100 µM
GI50 [6]: 22.2 µM
TGI [6]: 88.4 µM
GI50 [7]: 17.7 µM
TGI [7]: 42.8 µM
GI50 [8]: 11.8 µM
TGI [8]: 24.5 µM
GI50 [9]: 30.4 µM
TGI [9]: 93.2 µM
GI50 [10]: 32.6 µM
TGI [10]: > 100 µM
GI50 [11]: 23.2 µM
TGI [11]: 38.7 µM
GI50 [12]: 23.3 µM
TGI [12]: 50.9 µM
GI50 [13]: 18.4 µM
TGI [13]: 37.1 µM
GI50 [14]: 16.4 µM
TGI [14]: 30.3 µM
GI50 [15]: 23 µM
TGI [15]: 50.1 µM
GI50 [16]: 34.8 µM
TGI [16]: > 100 µM
GI50 [17]: 20.7 µM
TGI [17]: 39 µM
GI50 [18]: 11.1 µM
TGI [18]: 24 µM
GI50 [19]: 13.9 µM
TGI [19]: 28.9 µM
GI50 [20]: 27.8 µM
TGI [20]: > 100 µM
GI50 [21]: 27.4 µM
TGI [21]: 62.3 µM
GI50 [22]: 6.96 µM
TGI [22]: 29.4 µM
GI50 [23]: 11.9 µM
TGI [23]: 28.1 µM
GI50 [24]: 26.8 µM
TGI [24]: 90.7 µM
GI50 [25]: 35.6 µM
TGI [25]: > 100 µM
GI50 [26]: 33.2 µM
TGI [26]: > 100 µM
GI50 [27]: 10.5 µM
TGI [27]: 29.2 µM
GI50 [28]: 25.1 µM
TGI [28]: 62.2 µM
GI50 [29]: 19.9 µM
TGI [29]: 34.4 µM
GI50 [30]: 26.7 µM
TGI [30]: 52.6 µM
GI50 [31]: 37.5 µM
TGI [31]: 96.2 µM
GI50 [32]: 27.8 µM
TGI [32]: 64.1 µM
GI50 [33]: 14.8 µM
TGI [33]: 35.2 µM
GI50 [34]: 98.1 µM
TGI [34]: > 100 µM
GI50 [35]: 29.3 µM
TGI [35]: 68.8 µM
GI50 [36]: 38.2 µM
TGI [36]: 93.8 µM
GI50 [37]: 40.4 µM
TGI [37]: > 100 µM
GI50 [38]: 24 µM
TGI [38]: 90.4 µM
GI50 [39]: 40.3 µM
TGI [39]: > 100 µM
GI50 [40]: 23.6 µM
TGI [40]: 40.3 µM
GI50 [41]: 17.8 µM
TGI [41]: 33.5 µM
GI50 [42]: 43.4 µM
TGI [42]: > 100 µM
GI50 [43]: 20.1 µM
TGI [43]: 35.1 µM
GI50 [44]: 29.5 µM
TGI [44]: 71.6 µM
GI50 [45]: 12.1 µM
TGI [45]: 25.6 µM
GI50 [46]: 14.7 µM
TGI [46]: 28.4 µM
GI50 [47]: 22.7 µM
TGI [47]: 58.2 µM
GI50 [48]: 48.5 µM
TGI [48]: > 100 µM
GI50 [49]: 56.8 µM
TGI [49]: > 100 µM
GI50 [50]: 44.2 µM
TGI [50]: > 100 µM
GI50 [51]: 13.1 µM
TGI [51]: 26.4 µM
GI50 [52]: 31.5 µM
TGI [52]: 49.2 µM
GI50 [53]: 27.4 µM
TGI [53]: 83.9 µM
GI50 [54]: 16.8 µM
TGI [54]: 37.4 µM
GI50 [55]: 27.8 µM
TGI [55]: 62.4 µM
GI50 [56]: 15.3 µM
TGI [56]: 30 µM
GI50 [57]: 21.4 µM
TGI [57]: 69.9 µM
